Reference: patent US9457056B2, “Peptides comprising alternating hydrophobic and anionic amino acids for treatment of osteoporosis” (Ben-Gurion University of the Negev Research and Development …, priority 2007, dated 2016)
Entries after “also recorded” stand apart in the source; their conditions may differ. Ends that are not written are not given here.

What was measured:
[1] = tested on: human stomach; settings: healthy volunteers, doses prescribed for osteoporosis and Pagets disease of bone; cited from earlier work
[2] = Formation of hydrogels by additional peptides; format: physicochemical; settings: 4% weight in 100 μl NaOH solution
Excerpt: Additional peptides were studies in order to elucidate the role of termini Proline residue in hydrogel formation, to test the effect of peptide length and peptide termini protecting groups.

[3] = tested on: Sprague-Dawley rats; test: Antigenicity (immunity) test, single intramuscular administration of hydrogel; format: in vivo, rat; settings: single i.m. hydrogel, 7.5 times maximum estimated human dose, 14 days
Method: Immunity tests were performed to determine the safety of the compositions of the present invention. […] The control group was injected with saline. Rats were scarified after 14 days, blood was withdrawn for future hematology and biochemistry tests.

[4] = tested on: Sprague-Dawley rats; test: In vivo toxicity, single subcutaneous administration of hydrogel
Method: A control group was injected with saline. Rats were sacrificed after 14 days. Hematology and biochemistry blood tests were performed, the injected area was excised and examined as well as other internal organs.

[5] = tested on: SaOS2 cells; test: Quantitative evaluation of SaOS2 growth on 2D hydrogels (LIVE/DEAD Viability/Cytotoxicity Kit); format: cell-based; settings: 3% w/v hydrogel, vs uncoated wells
Method: On 2D hydrogels: Quantitative studies of cell proliferation were performed in 2D systems of PFD-13 (3% w/v) hydrogels that were formed with DMEM+bicarbonate at pH ˜7.0 in 96-wells plates.
The plates were sterilized by gamma irradiation (5000 rad). 50 μl of culture media were pipette on top of each hydrogel for conditioning. After 1 h at room temp, SaOS2 cells were seeded on top of the hydrogels. Single cell suspensions obtained after trypsinization which diluted to concentration of 1×10^5 cells/1 ml. 50 μl of this cell suspension was seeded on top of each hydrogel. Triplicates of none coated wells were seeded and served as control. After 1 h of incubation, medium was added to complete the volume to 200 μl in each well ([…] and 150 μl in the uncoated wells). Culture medium was exchanged twice a week. Viability of the cells was evaluated every week, over a month, using the LIVE/DEAD Viability/Cytotoxicity Kit (Molecular Probes, Invitrogen, France) following the manufacturer's instructions. […] Ethidium-III enters dead cells with damaged membranes and undergoes a 40-fold enhancement of fluorescence upon binding to their DNA, leading to a red fluorescent signal. The plates were measured in a plate reader (calcein: Ex=495 nm, Em=515 nm. ethidium: Ex=530 nm, Em=635 nm). After measuring the medium fluorescence, the gain was set constant for each probe. […]

[6] = Effect of Ca+2 ions on hydrogel formation; format: physicochemical; set-up: key: Hydrogel formation (✓); * partial formation of hydrogel over hours; settings: peptide final concentration 1.34% weight
Method: With the addition of Ca^+2 ions to the solution of the peptide the system may form a hydrogel. These hydrogels are obtained at peptide concentrations smaller and at pH values higher than those without the ions. […] It is possible that the Ca^+2 may also induce cross linking between strands in a mechanism similar to that of alginate hydrogel formation. The concentration of Ca^+2 ions in the hydrogel are a few times larger than in the body serum (2.5 mM). This is envisaged to yield a better environment for the bone forming osteoblast cells. In any event, the Ca^+2 provides an additional parameter to control the hydrogel rheological and stability properties.
Peptides, 2% (w/v) in the liquid state were dissolved in 0.05 M NaOH to yield 7.0<pH<7.5 solution.

[7] = single s.c. hydrogel, about 10 times clinically relevant amount

Row | Compound | Resultant pH ([2]; NaOH conc. 0.03) | Resultant pH ([2]; NaOH conc. 0.05) | Self supporting gel formation assigned + ([2]; NaOH conc. 0.05) | Hydrogel formation upon the addition of CaCl2 sol. ([6]; Ca+2 final concentration 27 mM) | Hydrogel formation upon the addition of CaCl2 sol. ([6]; Ca+2 final concentration 33 mM) | Hydrogel formation upon the addition of CaCl2 sol. ([6]; Ca+2 final concentration 20 mM) | other results
1 | NCCCC(O)(P(=O)(O)O)P(=O)(O)O [Alendronate, alendronate] |  |  |  |  |  |  | Gastric injury [1]: cause erosions and ulcers in the human stomach
2 | (Phe-Asp)6 (chain 1 FDFDFDFDFDFD; chain 2 FDFDFDFDFDFD) | ~6 | ~7 |  |  |  |  | 
3 | Ac-PDFDFDFDFDFDP-NH2 [Ac-Pro-Asp-(Phe-Asp)5-Pro-NH2] | ~6 | >7.5 | Viscous liquid |  |  |  | Appearance during the experiment [3]: appeared normal; Survival [3]: All rats survived; Levels of LDH ([4]; rats sacrificed after 7 days): slightly high levels; Levels of LDH ([4]; rats sacrificed after 14 days): normal; Behavior [4, 7]: no signs of abnormal behavior; Body weight compared to control group [4, 7]: did not lose weight; Internal organs [4, 7]: appeared normal; Survival [4, 7]: All rats survived
4 | PDFDFDFDFDFDP [PFD-13, PD(FD)5P] |  |  |  | ✓ | ✓ |  | Cytotoxicity (EthD-III staining) [5]: not significant; also recorded: non toxic to the cells
5 | PDLDLDLDLDLDP [PLD-13, PD(LD)5P] |  |  |  | * | * | * | 
6 | PEFEFEFEFEFEP [PFE-13, PE(FE)5P] |  |  |  | ✓ | ✓ | ✓ | 
7 | PELELELELELEP [PLE-13, PE(LE)5P] |  |  |  | ✓ | ✓ | ✓ | 
8 | Pro-Asp-(Phe-Asp)6 (chain 1 PDFDFDFDFDFDFD; chain 2 PDFDFDFDFDFDFD) | ~6 | ~7 | after several hrs. |  |  |  | 
9 | Pro-Asp-Phe-Asp (PDFD; printed: Pro-Asp-Phe-Asp) | ~3 | ~4 | liquid |  |  |  | Self supporting gel formation assigned + ([2]; NaOH conc. 0.03): liquid
